Experimental data from patent publication US6875761B2 (Eisai Co., Ltd., priority 1997, dated 2005).
Structures can show the parent of a compound that is named as a salt.

Tests used:
Design in all cases: species or system SD rats
serotonin 1A receptor = molecular target: T1, serotonin 1A receptor (Rattus norvegicus, UniProt P19327); assay: Binding test on [3H] 8-hydroxy-dipropylaminotetralin, hippocampus receptor fraction; conditions: rat hippocampus receptor fraction, 0.5 nM [3H] 8-OH-DPAT, room temperature 30 min; read-out: 5HT1
T1 construct: To the receptor fraction of the hippocampus were added a test compound and 0.5 nM of [^3H]; 8-hydroxy-dipropylaminotetralin; from tissue; host or cells: rat hippocampus membrane fraction
T1 sequence (P19327 1-422): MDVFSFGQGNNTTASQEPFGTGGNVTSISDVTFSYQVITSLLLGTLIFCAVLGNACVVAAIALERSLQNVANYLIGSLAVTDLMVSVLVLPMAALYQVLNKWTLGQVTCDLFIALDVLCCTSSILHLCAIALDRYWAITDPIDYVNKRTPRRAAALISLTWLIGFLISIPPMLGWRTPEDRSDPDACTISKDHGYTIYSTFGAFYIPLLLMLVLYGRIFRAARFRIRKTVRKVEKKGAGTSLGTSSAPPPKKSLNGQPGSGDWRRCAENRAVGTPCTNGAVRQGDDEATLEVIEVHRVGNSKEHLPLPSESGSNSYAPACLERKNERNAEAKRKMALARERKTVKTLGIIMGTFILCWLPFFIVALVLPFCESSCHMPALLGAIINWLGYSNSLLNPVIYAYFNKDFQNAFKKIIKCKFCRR

serotonin 2 receptor = molecular target: T2, serotonin 2 receptor (Rattus norvegicus, UniProt P14842); assay: Binding test on [3H] ketanserin, cerebral cortex receptor fraction; conditions: 0.3 nM [3H] ketanserin, 37° C. 15 min, read-out: 5HT2
T2 construct: To the receptor fraction of the cerebral cortex were added a test compound and 0.3 nM of [^3H] ketanserin; from tissue; host or cells: rat cerebral cortex membrane fraction
T2 sequence (P14842 whole entry): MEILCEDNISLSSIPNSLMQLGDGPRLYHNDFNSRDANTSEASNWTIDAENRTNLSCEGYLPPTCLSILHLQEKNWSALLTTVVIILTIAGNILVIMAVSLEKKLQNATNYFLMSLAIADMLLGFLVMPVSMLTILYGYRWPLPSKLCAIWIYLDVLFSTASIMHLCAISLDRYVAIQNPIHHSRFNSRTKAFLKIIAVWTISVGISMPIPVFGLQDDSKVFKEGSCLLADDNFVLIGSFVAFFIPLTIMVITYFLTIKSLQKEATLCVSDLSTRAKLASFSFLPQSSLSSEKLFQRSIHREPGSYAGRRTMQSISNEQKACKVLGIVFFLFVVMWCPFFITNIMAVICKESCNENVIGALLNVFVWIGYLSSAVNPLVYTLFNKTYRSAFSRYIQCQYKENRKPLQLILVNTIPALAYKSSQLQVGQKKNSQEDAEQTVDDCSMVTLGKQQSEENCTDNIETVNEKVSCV

α1 adrenalin receptor = assay: Binding test on [3H] prazosin, cerebral cortex receptor fraction; conditions: rat cerebral cortex receptor fraction, about 0.2 nM [3H] prazosin, room temperature 60 min; read-out: α 1
Experimental: As radioisotope-labeled compounds, use was made of the following reagents (mfd. by NEN). • 3) [^3H] […] Prazosin.
Use was made of SD rats aged 6 to 8 weeks.
The rats were sacrificed by dcapitation to extirpate the cerebra.
Each mixture was homogenized by using a Teflon glass homogenizer and centrifuged as 1,000× g for 10 min. The supernatant thus obtained was further centrifuged at 20,000× g for 20 min. […] After centrifuging at 20,000× g for 20 min, the obtained precipitate was further suspended and centrifuged twice each in the same manner. […] This receptor fraction was stored at −80° C. until using.
IC50 was calculated by the probit method, while Ki was determined in accordance with the following formula: Ki=IC50(1+c/Kd) wherein c represents the concentration of the radioisotope-labeled compound, and Kd represents the dissociation constant of the radioisotope-labeled compound with respect to the receptor determined by Scatchard's analysis. (Binding test on [^3H] prazosin)
To the receptor fraction of the cerebral cortex were added a test compound and about 0.2 nM of [^3H] prazosin and the resultant mixture was incubated at room temperature for 60 min. Next, it was filtered through a glass filter with the use of a cell harvester. After washing the glass filter with 50 mM Tris hydrochloride (pH 7.4), the radioactivity of the receptor was measured with a liquid scintillation counter. The binding detected in the presence of 10 μM of phentolamine was referred to as the nonspecific binding.

Compound | Ki (serotonin 1A receptor) [µM] | Ki (serotonin 2 receptor) [µM] | Ki (α1 adrenalin receptor) [µM]
CCN1CCN(c2nc(CCCCOCc3ccccc3)cc3ccccc23)CC1 [Example 1, 3-(4-benzyloxybutyl)-1-(4-ethylpiperazin-1-yl)isoquinoline Dihydrochloride] | 0.0212 | 0.0364 | > 2
CCN1CCN(c2nc(-c3ccc(OC)cc3OC)cc3ccccc23)CC1 [Example 12, 3-(2,4-dimethoxyphenyl)-1-(4-ethylpiperazin-1-yl)isoquinolin Dihydrochloride] | 0.14 | 0.00532 | 4.11
CCC(O)c1ccc(-c2cc3ccccc3c(N3CCN(CC)CC3)n2)cc1 (stereo not shown) [Example 19, 1-(4-ethylpiperazin-1-yl)-3-[4-(1-hydroxypropyl)phenyl]isoquinoline hydrochloride] | 0.0069 | 0.0016 | 0.373
CCN1CCN(c2nc(-c3ccc(CCCO)cc3)cc3ccccc23)CC1 [Example 20, 1-(4-ethylpiperazin-1-yl)-3-[4-(3-hydroxypropyl)phenyl]isoquinoline hydrochloride] | 0.0145 | 0.0026 | 0.868
CCCC(O)c1ccc(-c2cc3ccccc3c(N3CCN(CC)CC3)n2)cc1 (stereo not shown) [Example 21, 1-(4-ethylpiperazin-1-yl)-3-[4-(1-hydroxybutyl)phenyl]isoquinoline oxalate] | 0.0172 | 0.0043 | 0.636
CCN1CCN(c2nc(-c3ccc(CCC(C)O)cc3)cc3ccccc23)CC1 (stereo not shown) [Example 22, 1-(4-ethylpiperazin-1-yl)-3-[4-(3-hydroxybutyl)phenyl]isoquinoline oxalate] | 0.0094 | 0.0015 | 3.1
CCN1CCN(c2nc(-c3ccc(CCCCO)cc3)cc3ccccc23)CC1 [Example 23, 3-[4-(4-hydroxybutyl)phenyl]-1-(4-ethylpiperazin-1-yl)isoquinoline hydrochloride] | 0.0168 | 0.0064 | 1.25
CCN1CCN(c2nc(-c3ccc(CCCO)c(F)c3)cc3ccccc23)CC1 [Example 29, hydrochloride] | 0.0096 | 0.0035 | 0.668
CCN1CCN(c2nc(-c3ccc(CCCO)c(C#N)c3)cc3ccccc23)CC1 [Example 32, 3-[3-cyano-4-(3-hydroxypropyl)phenyl]-1-(4-ethylpiperazin-1-yl)isoquinoline hydrochloride] | 0.0101 | 0.0078 | 0.5
CCN1CCN(c2nc(-c3ccc(CCCO)c(OC)c3)cc3ccccc23)CC1 [Example 33, 1-(4-ethylpiperazin-1-yl)-3-[4-(3-hydroxypropyl)-3-methoxyphenyl]isoquinoline hydrochloride] | 0.0079 | 0.0109 | 0.758
CCN1CCN(c2nc(-c3ccc(OCCO)cc3)cc3ccccc23)CC1 [Example 36, 1-(4-ethylpiperazin-1-yl)-3-[4-(2-hydroxyethoxy)phenyl]isoquinoline dihydrochloride] | 0.0188 | 0.0039 | 1.22
CCN1CCN(c2nc(-c3ccc(OCCOC)cc3)cc3ccccc23)CC1 [Example 42, 1-(4-ethylpiperazin-1-yl)-3-[4-(2-methoxyethoxy)phenyl]isoquinoline dihydrochloride] | 0.0331 | 0.0044 | 2.45
CCN1CCN(c2nc(-c3ccc(OCCF)cc3)cc3ccccc23)CC1 [Example 45, 1-(4-Ethylpiperazin-1-Yl)-3-[4-(2-Fluoroethoxy)Phenyl]Isoquinoline Dihydrochloride] | 0.045 | 0.0011 | 1.22
CCN1CCN(c2nc(-c3ccc(OCCC#N)cc3)cc3ccccc23)CC1 [Example 52, 3-[4-(2-Cyanoethoxy)Phenyl]-1-(4-Ethylpiperazin-1-Yl)Isoquinoline Hydrochloride] | 0.0235 | 0.0006 | 0.555
CCCNC(=O)c1ccc(-c2cc3ccccc3c(N3CCN(CC)CC3)n2)cc1 [Example 63, 1-(4-Ethylpiperazin-1-Yl)-3-(4-N-Propylaminocarbonylphenyl)Isoquinoline Hydrochloride] | 0.0181 | 0.00084 | 0.252
CCCC(=O)Nc1ccc(-c2cc3ccccc3c(N3CCN(CC)CC3)n2)cc1 [Example 70, 3-(4-Propylcarbonylaminophenyl]-1-(4-Ethylpiperazin-1-Yl)Isoquinoline Hydrochloride] | 0.0233 | 0.0055 | 1.26
CCCCS(=O)(=O)Nc1ccc(-c2cc3ccccc3c(N3CCN(CC)CC3)n2)cc1 [Example 73, 3-(4-Butylsulfonylaminophenyl)-1-(4-Ethylpiperazin-1-Yl)Isoquinoline Hydrochloride] | 0.013 | 0.0033 | 0.699

Compound | Ki (serotonin 1A receptor) [µM] | Ki (serotonin 2 receptor) [µM] | Ki (α1 adrenalin receptor) [µM]
CCN1CCN(c2nc(CCc3ccc(OCCO)cc3)cc3ccccc23)CC1 [Example 109, 1-(1-Ethylpiperazin-4-yl)-3-[4-(2-hydroxyethoxy)phenethyl]isoquinoline] | – | – | > 2
CCN1CCN(c2nc(-c3ccccn3)cc3ccccc23)CC1 [Example 123, 1-(4-Ethylpiperazin-1-yl)-3-(2-Pyridyl)Isoquinoline Dihydrochloride] | 0.034 | 0.0291 | 0.553
CCN1CCN(c2nc(-c3ccc(OCCOC)nc3)cc3ccccc23)CC1 [Example 126, 1-(1-Ethylpiperazin-4-yl)-3-[2-(2-Methoxyethoxy)Pyridin-5-yl]Isoquinoline] | 0.0264 | 0.0057 | 0.382
CCN1CCN(c2nc(-c3ccc(CCCOC)nc3)cc3ccccc23)CC1 [Example 139, 1-(1-Ethylpiperazin-4-yl)-3-[2-(3-Methoxypropyl)Pyridin-5-yl]Isoquinoline Oxalate] | 0.0027 | 0.0051 | 0.374
CCN1CCN(c2nc(-c3ccc(N4CCOCC4)cc3)cc3ccccc23)CC1 [Example 160, 3-[4-(4-morpholinyl)phenyl]-1-(4-ethylpiperazin-1-yl)isoquinoline dihydrochloride] | 0.0222 | 0.0007 | 0.536
CCN1CCN(c2nc(-c3cnc(N4CCOCC4)s3)cc3ccccc23)CC1 [Example 173, 1-(1-ethylpiperazin-4-yl)-3-[2-(4-morpholinyl)-5-thiazolyl]isoquinoline dihydrochloride] | 0.0039 | 0.0048 | 0.284
CCN1CCN(c2nc(C#Cc3ccccn3)cc3ccccc23)CC1 [Example 179, 1-(1-Ethylpiperazin-4-Yl)-3-(2-Pyridyl)Ethynylisoquinoline Oxalate] | 0.0053 | 0.0004 | 0.208
CCN1CCN(c2nc(C#CCc3ccccc3)cc3ccccc23)CC1 [Example 181, 1-(1-Ethylpiperazin-4-Yl)-3-(3-Phenyl-1-Propynyl)Isoquinoline Oxalate] | 0.0179 | 0.0067 | 0.92
CCN1CCN(c2nc(C#Cc3ccc(OCCO)cc3)cc3ccccc23)CC1 [Example 183, 1-(1-Ethylpiperazin-4-Yl]-3-[4-(2-Hydroxyethoxy)Phenylethynyl]Isoquinoline Dihydrochloride] | 0.0141 | 0.00336 | 0.577
CCN1CCN(c2nc(C#Cc3ccccc3OCCO)cc3ccccc23)CC1 [Example 187, 1-(1-Ethylpiperazin-4-Yl)-3-[2-(2-Hydroxyethoxylphenyl]Ethynylisoquinoline Oxalate] | 0.00981 | 0.00253 | 0.969
CCN1CCN(c2nc(NCc3ccc(OC)cc3)cc3ccccc23)CC1 [Example 220, 1-(1-ethylpiperazin-4-yl)-3-(4-methoxybenzylamino)isoquinoline oxalate] | 0.00053 | 0.00201 | 3.8
COc1ccc(-c2cc3ccccc3c(N3CCN(CCO)CC3)n2)cc1 [Example 242, 1-[4-(2-hydroxyethyl)piperazin-1-yl]-3-(4-methoxyphenyl)isoquinoline Dihydrochloride] | – | – | 1.79
CCN1CCN(c2nc(-c3ccc(OCCO)cc3)cc3ccsc23)CC1 [Example 259, 7-(4-ethylpiperazin-1-yl)-5-(4-hydroxyethoxyphenyl)thieno[2,3-c]pyridine Hydrochloride] | 0.00926 | 0.0189 | 0.405
CCN1CCN(c2nc(-c3ccc(C(C)O)cc3)cc3sccc23)CC1 (stereo not shown) [Example 281, 4-(4-ethylpiperazin-1-yl)-6-[4-(1-hydroxyethyl)phenyl]thieno[3,2-c]pyridine oxalate] | 0.015 | 0.0169 | 0.345
CCN1CCN(c2nc(-c3ccc(OCCO)cc3)cc3sccc23)CC1 [Example 286, dihydrochloride] | – | – | 0.305
CCCN1CCN(c2nc(-c3ccc(OCC(C)(C)O)cc3)cc3sccc23)CC1 [Example 289, 6-[4-(2-methyl-2-hydroxypropoxy)phenyl]-4-(4-propylpiperazin-1-yl)thieno[3,2-c]pyridine hydrochloride] | – | – | 1.31
